Measured values: ChEMBL document CHEMBL5518215, “Unlocking Antibacterial Potential: Key-Site-Based Regulation of Antibacterial Spectrum of Peptides” (J Med Chem, 2024)
Residues, ends and D or L forms follow the SMILES beside them. *: point of attachment. FITC = O=C1OC2(c3ccc(O)cc3Oc3cc(O)ccc32)c2ccc(NC(=S)*)cc21

Tests used:
[1] = Drug distribution in Escherichia coli 25922 assessed as red fluorescence signal at 1 time MIC concentration incubated for 30 mins in absence of light by Propidium iodide staining based assay; format: ADME; details: 0.5 h
[2] = Drug distribution in Escherichia coli 25922 assessed as green fluorescence signal covered all the bacterial cell at 1 time MIC concentration incubated for 30 mins in absence of light by 3D-SIM super resolution microscopy; format: ADME; details: 0.5 h
[3] = Drug distribution in Staphylococcus aureus 29213 assessed as green fluorescence signal covered all the bacterial cell at 1 time MIC concentration incubated for 30 mins in absence of light by 3D-SIM super resolution microscopy; format: ADME; details: 0.5 h
[4] = Drug distribution in Staphylococcus aureus 29213 assessed as red fluorescence signal at 1 time MIC concentration incubated for 30 mins in absence of light by Propidium iodide staining based assay; format: ADME; details: 0.5 h
Escherichia coli [5] = assay: Antimicrobial activity against Escherichia coli 25922 assessed as absence bacterial growth measured after 18 to 24 hrs incubation in presence of KCl by NCCLS method; format: functional; details: time 18-24 hrs
Escherichia coli [6] = assay: Antimicrobial activity against Escherichia coli 25922 assessed as bacterial killing measured after 16 hrs incubation; format: functional
[7] = Cytotoxicity against human HEK-293T cells assessed as cell survival rate measured after 8 hrs by MTT assay; format: toxicity, cell-based
Escherichia coli [8] = assay: Antimicrobial activity against Escherichia coli K88 assessed as bacterial killing measured after 16 hrs incubation; format: functional
Salmonella typhimurium [9] = assay: Antimicrobial activity against Salmonella typhimurium 14028 assessed as absence bacterial growth measured after 18 to 24 hrs incubation by NCCLS method; format: functional, Salmonella enterica subsp. enterica serovar Typhimurium; details: Salmonella enterica, time 18-24 hrs
Staphylococcus aureus [10] = assay: Antimicrobial activity against Staphylococcus aureus 29213 assessed as absence bacterial growth measured after 18 to 24 hrs incubation by NCCLS method; format: functional; details: time 18-24 hrs
[11] = Cytotoxicity against mouse RAW264.7 cells assessed as cell survival rate at 32 to 64 uM measured after 8 hrs by MTT assay relative to control; format: toxicity, cell-based; details: dose 32-64 µM, read-out: Activity
Listeria monocytogenes [12] = assay: Antimicrobial activity against Listeria monocytogenes 1.10753 assessed as absence bacterial growth measured after 18 to 24 hrs incubation by NCCLS method; format: functional; details: time 18-24 hrs
Staphylococcus aureus [13] = assay: Antimicrobial activity against Staphylococcus aureus 25923 assessed as bacterial killing measured after 16 hrs incubation; format: functional
[14] = system: Staphylococcus epidermidis; assay: Antimicrobial activity against Staphylococcus epidermidis 12228 assessed as absence bacterial growth measured after 18 to 24 hrs incubation by NCCLS method; format: functional; details: time 18-24 hrs
Bacillus cereus [15] = assay: Antimicrobial activity against Bacillus cereus 1.932 assessed as absence bacterial growth measured after 18 to 24 hrs incubation by NCCLS method; format: functional; details: time 18-24 hrs
Listeria monocytogenes [16] = assay: Antimicrobial activity against Listeria monocytogenes 1.10753 assessed as bacterial killing measured after 16 hrs incubation; format: functional
[17] = Cytotoxicity against porcine IPEC-J2 cells assessed as cell survival rate measured after 8 hrs by MTT assay; format: toxicity, cell-based, Sus scrofa; details: pig
[18] = Antimicrobial activity against Salmonella pullorum C7913 assessed as bacterial killing measured after 16 hrs incubation; format: functional, Salmonella enterica subsp. enterica serovar Pullorum; details: Salmonella enterica
Enterococcus faecalis [19] = assay: Antimicrobial activity against Enterococcus faecalis 29212 assessed as absence bacterial growth measured after 18 to 24 hrs incubation by NCCLS method; format: functional; details: time 18-24 hrs
Acinetobacter baumannii [20] = assay: Antimicrobial activity against Acinetobacter baumannii 1.6769 assessed as absence bacterial growth measured after 18 to 24 hrs incubation by NCCLS method; format: functional; details: time 18-24 hrs
Escherichia coli [21] = assay: Antimicrobial activity against Escherichia coli 25922 assessed as absence bacterial growth measured after 18 to 24 hrs incubation in presence of NaCl by NCCLS method; format: functional; details: time 18-24 hrs
Escherichia coli [22] = assay: Antimicrobial activity against Escherichia coli 25922 assessed as absence bacterial growth measured after 18 to 24 hrs incubation by NCCLS method; format: functional; details: time 18-24 hrs
Escherichia coli [23] = assay: Antimicrobial activity against Escherichia coli 25922 assessed as absence bacterial growth measured after 18 to 24 hrs incubation in presence of MgCl2 by NCCLS method; format: functional; details: time 18-24 hrs
Escherichia coli [24] = assay: Antimicrobial activity against Escherichia coli 25922 assessed as absence bacterial growth measured after 18 to 24 hrs incubation in presence of NH4Cl by NCCLS method; format: functional; details: time 18-24 hrs
Escherichia coli [25] = assay: Antimicrobial activity against Escherichia coli 25922 assessed as absence bacterial growth measured after 18 to 24 hrs incubation in presence of ZnCl2 by NCCLS method; format: functional; details: time 18-24 hrs
[26] = system: Staphylococcus epidermidis; assay: Antimicrobial activity against Staphylococcus epidermidis 12228 assessed as bacterial killing measured after 16 hrs incubation; format: functional
[27] = Cytotoxicity against porcine IPEC-J2 cells assessed as cell survival rate at 64 uM measured after 8 hrs by MTT assay relative to control; format: toxicity, cell-based, Sus scrofa; details: pig, read-out: Activity
[28] = Hemolytic activity in human RBC at effective concentration at 128 uM measured after 1 hr by microplate reader relative to control; format: toxicity, cell-based, Erythrocyte; details: human red blood cells (erythrocytes), read-out: Activity
Staphylococcus aureus [29] = assay: Antimicrobial activity against Staphylococcus aureus 29213 assessed as absence bacterial growth measured after 18 to 24 hrs incubation by NCCLS m; format: functional; details: time 18-24 hrs
Escherichia coli [30] = assay: Antimicrobial activity against Escherichia coli K88 assessed as absence bacterial growth measured after 18 to 24 hrs incubation by NCCLS method; format: functional; details: time 18-24 hrs
Staphylococcus aureus [31] = assay: Antimicrobial activity against Methicillin-resistant Staphylococcus aureus 43300 assessed as absence bacterial growth measured after 18 to 24 hrs incubation by NCCLS method; format: functional; details: time 18-24 hrs
Escherichia coli [32] = assay: Antimicrobial activity against Escherichia coli 25922 assessed as absence bacterial growth measured after 18 to 24 hrs incubation in presence of 25% serum by NCCLS method; format: functional; details: time 18-24 hrs
Pseudomonas aeruginosa [33] = assay: Antimicrobial activity against Pseudomonas aeruginosa 27853 assessed as bacterial killing measured after 16 hrs incubation; format: functional
[34] = Cytotoxicity against human HEK-293T cells assessed as cell survival rate at 64 uM measured after 8 hrs by MTT assay relative to control; format: toxicity, cell-based; details: read-out: Activity
Salmonella typhimurium [35] = assay: Antimicrobial activity against Salmonella typhimurium 14028 assessed as bacterial killing measured after 16 hrs incubation; format: functional, Salmonella enterica subsp. enterica serovar Typhimurium; details: Salmonella enterica
Escherichia coli [36] = assay: Antimicrobial activity against Escherichia coli 25922 assessed as absence bacterial growth measured after 18 to 24 hrs incubation in presence of 50% serum by NCCLS method; format: functional; details: time 18-24 hrs
Erythrocyte = assay: Hemolytic activity in human RBC at effective concentration measured after 1 hr by microplate reader analysis; format: toxicity, cell-based
Enterococcus faecalis [37] = assay: Antimicrobial activity against Enterococcus faecalis 29212 assessed as bacterial killing measured after 16 hrs incubation; format: functional
Salmonella typhimurium [38] = assay: Antimicrobial activity against Salmonella typhimurium C7731 assessed as bacterial killing measured after 16 hrs incubation; format: functional, Salmonella enterica subsp. enterica serovar Typhimurium; details: Salmonella enterica
Escherichia coli [39] = assay: Antimicrobial activity against Escherichia coli 25922 assessed as absence bacterial growth measured after 18 to 24 hrs incubation in presence of 12.5% serum by NCCLS method; format: functional; details: time 18-24 hrs
[40] = Antimicrobial activity against Salmonella pullorum C7913 assessed as absence bacterial growth measured after 18 to 24 hrs incubation by NCCLS method; format: functional, Salmonella enterica subsp. enterica serovar Pullorum; details: Salmonella enterica, time 18-24 hrs
[41] = Cytotoxicity against mouse RAW264.7 cells assessed as cell survival rate measured after 8 hrs by MTT assay; format: toxicity, cell-based
Bacillus cereus [42] = assay: Antimicrobial activity against Bacillus cereus 1.932 assessed as bacterial killing measured after 16 hrs incubation; format: functional
Pseudomonas aeruginosa [43] = assay: Antimicrobial activity against Pseudomonas aeruginosa 27853 assessed as absence bacterial growth measured after 18 to 24 hrs incubation by NCCLS method; format: functional; details: time 18-24 hrs
Escherichia coli [44] = assay: Antimicrobial activity against Escherichia coli 25922 assessed as absence bacterial growth measured after 18 to 24 hrs incubation in presence of FeCl3 by NCCLS method; format: functional; details: time 18-24 hrs
Staphylococcus aureus [45] = assay: Antimicrobial activity against Methicillin-resistant Staphylococcus aureus 43300 assessed as bacterial killing measured after 16 hrs incubation; format: functional
Salmonella typhimurium [46] = assay: Antimicrobial activity against Salmonella typhimurium C7731 assessed as absence bacterial growth measured after 18 to 24 hrs incubation by NCCLS method; format: functional, Salmonella enterica subsp. enterica serovar Typhimurium; details: Salmonella enterica, time 18-24 hrs
Staphylococcus aureus [47] = assay: Antimicrobial activity against Staphylococcus aureus 29213 assessed as bacterial killing measured after 16 hrs incubation; format: functional
Acinetobacter baumannii [48] = assay: Antimicrobial activity against Acinetobacter baumannii 1.6769 assessed as bacterial killing measured after 16 hrs incubation; format: functional

Which Drug uptake [1] does the source give for `CC(C)C[C@H](NC(=O)[C@H](CCCCN)NC(=O)CNC(=O)CNC(=O)[C@H](CCCCN)NC(=O)[C@H](CC(C)C)NC(=O)[C@H](Cc1c[nH]c2ccccc12)NC(=O)[C@H](CC(C)C)NC(=O)[C@H](CCCCN)NC(=O)CNC(=O)[C@H](C)NC(=O)[C@H](CCCCN)NC(=O)[C@H](CC(C)C)NC(=O)[C@H](Cc1c[nH]c2ccccc12)NC(=O)[C@H](CC(C)C)NC(=O)[C@H](CCCCN)NC(=O)CNC(=S)Nc1ccc2c(c1)C(=O)OC21c2ccc(O)cc2Oc2cc(O)ccc21)C(=O)N[C@@H](Cc1c[nH]c2ccccc12)C(=O)N[C@@H](CC(C)C)C(=O)N[C@@H](CCCCN)C(=O)NCC(N)=O` ({FITC}-GKLWLKAGKLWLKGGKLWLKG-NH2) here?
Its Drug uptake is “Active”.

What about the Drug uptake [2] of the same molecule?
The Drug uptake was “Active”.

What about the Drug uptake [3] of the same molecule?
The Drug uptake was “Active”.

What about the Drug uptake [4] of the same molecule?
The Drug uptake was “Active”.

For H-GKLWLKGAKLWLKGGKLWLKG-NH2, which MIC (Escherichia coli [5]) is on record?
Its MIC is 2 µM.

And the MBC (Escherichia coli [6])?
The MBC was 2 µM.

And the IC50 at 8 h [7]?
Its IC50 at 8 h is greater than 64 µM.

And the MBC (Escherichia coli [8])?
The MBC was 1 µM.

And the MIC (Salmonella typhimurium [9])?
Its MIC is 2 µM.

And the MIC (Staphylococcus aureus [10])?
Its MIC is 8 µM.

What about the viability at 8 h, up to 64 µM [11] of the same molecule?
Its viability at 8 h, up to 64 µM is 60%.

And the MIC (Listeria monocytogenes [12])?
The MIC was greater than 32 µM.

And the MBC (Staphylococcus aureus [13])?
The MBC was 8 µM.

And the MIC [14]?
The MIC was 8 µM.

And the MIC (Bacillus cereus [15])?
Its MIC is 2 µM.

And the MBC (Listeria monocytogenes [16])?
The MBC was greater than 32 µM.

And the IC50 at 8 h [17]?
The IC50 at 8 h was greater than 64 µM.

What about the MBC [18] of the same molecule?
The MBC was 2 µM.

What about the MIC (Enterococcus faecalis [19]) of the same molecule?
The MIC was 16 µM.

What about the MIC (Acinetobacter baumannii [20]) of the same molecule?
Its MIC is 4 µM.

What about the MIC (Escherichia coli [21]) of the same molecule?
Its MIC is 16 µM.

What about the MIC (Escherichia coli [22]) of the same molecule?
The MIC was 2 µM.

What about the MIC (Escherichia coli [23]) of the same molecule?
The MIC was 8 µM.

What about the MIC (Escherichia coli [24]) of the same molecule?
Its MIC is 2 µM.

And the MIC (Escherichia coli [25])?
Its MIC is 1 µM.

What about the MBC [26] of the same molecule?
The MBC was 8 µM.

What about the viability at 8 h, 64 µM [27] of the same molecule?
Its viability at 8 h, 64 µM is less than 50%.

What about the hemolysis at 1 h, 128 µM [28] of the same molecule?
Its hemolysis at 1 h, 128 µM is less than 10%.

And the MIC (Staphylococcus aureus [29])?
The MIC was 8 µM.

What about the MIC (Escherichia coli [30]) of the same molecule?
The MIC was 1 µM.

What about the MIC (Staphylococcus aureus [31]) of the same molecule?
Its MIC is 4 µM.

And the MIC (Escherichia coli [32])?
Its MIC is greater than 32 µM.

And the MBC (Pseudomonas aeruginosa [33])?
Its MBC is 8 µM.

And the viability at 8 h, 64 µM [34]?
The viability at 8 h, 64 µM was less than 50%.

What about the MBC (Salmonella typhimurium [35]) of the same molecule?
The MBC was 8 µM.

What about the MIC (Escherichia coli [36]) of the same molecule?
Its MIC is greater than 32 µM.

And the HC10 (Erythrocyte)?
The HC10 was greater than 128 µM.

And the MBC (Enterococcus faecalis [37])?
The MBC was 16 µM.

And the MBC (Salmonella typhimurium [38])?
The MBC was 8 µM.

What about the MIC (Escherichia coli [39]) of the same molecule?
The MIC was 32 µM.

And the MIC [40]?
Its MIC is 2 µM.

What about the IC50 at 8 h [41] of the same molecule?
The IC50 at 8 h was greater than 64 µM.

What about the MBC (Bacillus cereus [42]) of the same molecule?
Its MBC is 2 µM.

And the MIC (Pseudomonas aeruginosa [43])?
Its MIC is 4 µM.

And the MIC (Escherichia coli [44])?
The MIC was 2 µM.

And the MBC (Staphylococcus aureus [45])?
The MBC was 8 µM.

What about the MIC (Salmonella typhimurium [46]) of the same molecule?
Its MIC is 4 µM.

And the MBC (Staphylococcus aureus [47])?
Its MBC is 8 µM.

And the MBC (Acinetobacter baumannii [48])?
Its MBC is 4 µM.
